Here are results for 22 molecules from the supplement of paper PMC8498969.

Some results are limits rather than exact numbers.

Test [1] concerns HEK293. Nature of the test: IC50 for inhibition of ZIKV NS1 production. As for the experimental part: (§1)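 HEK293 cells in 1536-well plates were pre-treated with compound for 1 h, infected with ZIKV (MOI 1) for 24 h, and NS1 antigen (intra- plus extracellular) was measured by TR-FRET. Confirmation used 11-point 1:3 dilutions, and IC50 and maximal inhibition were fitted in GraphPad Prism.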

The subject of test [2] is HEK293. Nature of the test: cytotoxicity IC50 (ATP content, uninfected cells); higher = less cytotoxic. The conditions noted are these: infection: none.
Test [3] concerns HEK293. Briefly: maximal inhibition of ZIKV NS1 production (% inhibition); higher = stronger antiviral effect. As for the experimental part:
as §1

On to `CC1=C(O)C(=O)C=C2C1=CC=C1[C@@]2(C)CC[C@@]2(C)[C@@H]3C[C@](C)(C(=O)O)CC[C@]3(C)CC[C@]12C`, for which the IC50 in the test with HEK293 [1] is 3.4 µM. In addition, the “cytotoxicity IC50” value in the test on HEK293 [2] amounted to 2.2 µM. This molecule returned a maximal inhibition in the test with HEK293 [3] of 106.

Turning to `c1ccc2c(-c3cnn4cc(-c5ccc(N6CCNCC6)cc5)cnc34)ccnc2c1`, in the test on HEK293 [1], the IC50 is 6.1 µM. In addition, the “cytotoxicity IC50” value in the test on HEK293 [2] is 80 µM. Further, in the test on HEK293 [3], the maximal inhibition came out at 106.

Take `C[C@@H]1O[C@@H](O[C@H]2C[C@@H](O)[C@]3(CO)[C@H]4[C@H](O)C[C@]5(C)[C@@H](C6=CC(=O)OC6)CC[C@]5(O)[C@@H]4CC[C@]3(O)C2)[C@H](O)[C@H](O)[C@H]1O`: the IC50 in the test on HEK293 [1] stood at 0.17 µM. Moreover, the “cytotoxicity IC50” value with HEK293 [2] amounted to 0.19 µM. This molecule also yielded a maximal inhibition in the test on HEK293 [3] of 102.

`Nc1c2ccccc2nc2ccccc12` came in with an IC50 in the test on HEK293 [1] of 21 µM. Further, the “cytotoxicity IC50” value in the test with HEK293 [2] amounted to 100 µM. In the test on HEK293 [3], this molecule had a maximal inhibition of 102.

`FC(F)c1nc2ccccc2n1-c1nc(N2CCOCC2)nc(N2CCOCC2)n1` displayed an IC50 in the test with HEK293 [1] of 3.9 µM. The “cytotoxicity IC50” value with HEK293 [2] was found to be 60 µM. The same molecule came in with a maximal inhibition in the test on HEK293 [3] of 85.

As to `Nc1cc(C(F)(F)F)c(-c2cc(N3CCOCC3)nc(N3CCOCC3)n2)cn1`, the IC50 with HEK293 [1] was 4.2 µM. In addition, the “cytotoxicity IC50” value in the test on HEK293 [2] is 2.3 µM. For the same molecule, the maximal inhibition in the test on HEK293 [3] is 74.

`Cn1cc(-c2[nH]c3cc(NC(=O)[C@H](N)C4CCCCC4)cc4c3c2C=NNC4=O)cn1` had an IC50 with HEK293 [1] of 0.49 µM. In the test with HEK293 [2], the “cytotoxicity IC50” value was more than 100 µM. In the test on HEK293 [3], this molecule gave a maximal inhibition of 104.

In the test on HEK293 [1], `Oc1c(Cl)cc(Cl)c2cccnc12` yielded an IC50 of 46 µM. Besides, the “cytotoxicity IC50” value in the test with HEK293 [2] was determined as 16 µM. The molecule also returned a maximal inhibition in the test on HEK293 [3] of 93.

Take `CC[C@@H]1C(=O)N(C)c2cnc(Nc3ccc(C(=O)N[C@H]4CC[C@H](N5CCN(CC6CC6)CC5)CC4)cc3OC)nc2N1C(C)C`: the 50% inhibitory concentration (IC50) with HEK293 [1] turned out to be 0.065 µM. In the test with HEK293 [2], the “cytotoxicity IC50” value was more than 100 µM. The same molecule showed a maximal inhibition with HEK293 [3] of 101.

Take `Cc1c2oc3c(C)ccc(C(=O)N[C@@H]4C(=O)N[C@H](C(C)C)C(=O)N5CCC[C@H]5C(=O)N(C)CC(=O)N(C)[C@@H](C(C)C)C(=O)O[C@@H]4C)c3nc-2c(C(=O)N[C@@H]2C(=O)N[C@H](C(C)C)C(=O)N3CCC[C@H]3C(=O)N(C)CC(=O)N(C)[C@@H](C(C)C)C(=O)O[C@@H]2C)c(N)c1=O`: in the test on HEK293 [1], the IC50 is 0.35 µM. Besides, the “cytotoxicity IC50” value with HEK293 [2] is more than 100 µM. The same molecule registered a maximal inhibition with HEK293 [3] of 99.

`O=C1NCCc2[nH]c(-c3ccncc3)cc21` registered an IC50 in the test with HEK293 [1] of 20 µM. Further, the “cytotoxicity IC50” value with HEK293 [2] was more than 100 µM. For the same molecule, the maximal inhibition in the test on HEK293 [3] stood at 85.

On to `CNc1ccc2oc(C[C@H]3O[C@@]4(CC[C@H]3C)O[C@H]([C@H](C)C(=O)c3ccc[nH]3)[C@H](C)C[C@H]4C)nc2c1C(=O)O`, for which the IC50 in the test on HEK293 [1] worked out at 6.2 µM. The “cytotoxicity IC50” value in the test with HEK293 [2] came out at 20 µM. In the test with HEK293 [3], the maximal inhibition was 96.

The molecule `CCCOc1ccc2[nH]c(NC(=O)OC)nc2c1` showed an IC50 in the test with HEK293 [1] of 4.9 µM. In addition, the “cytotoxicity IC50” value in the test with HEK293 [2] was determined as 86 µM. The maximal inhibition in the test on HEK293 [3] was found to be 67.

In turn, `CC(C)C[C@H](NC(=O)[C@H](Cc1ccccc1)NC(=O)c1cnccn1)B(O)O` returned an IC50 in the test on HEK293 [1] of 0.025 µM. In addition, the “cytotoxicity IC50” value in the test with HEK293 [2] is 0.04 µM. This molecule came in with a maximal inhibition with HEK293 [3] of 95.

`COc1cc([C@@H]2c3cc4c(cc3[C@H](O)[C@H]3COC(=O)[C@@H]23)OCO4)cc(OC)c1OC` gave a half-maximal inhibitory concentration (IC50) in the test on HEK293 [1] of 2.6 µM. Besides, in the test on HEK293 [2], the “cytotoxicity IC50” value was more than 100 µM. Besides, the maximal inhibition in the test on HEK293 [3] is 68.

Molecule `O=c1[nH]nc(Sc2ncc([N+](=O)[O-])s2)n1-c1ccc2c(c1)OCCO2` yielded an IC50 with HEK293 [1] of 8 µM. In the test with HEK293 [2], the “cytotoxicity IC50” value was 12 µM. The molecule also registered a maximal inhibition in the test with HEK293 [3] of 97.

As for `CCCCCCCCc1ccc(CCC(N)(CO)CO)cc1`, the IC50 with HEK293 [1] was determined as 14 µM. Besides, the “cytotoxicity IC50” value in the test with HEK293 [2] is more than 100 µM. The molecule also came in with a maximal inhibition in the test with HEK293 [3] of 102.

In the test on HEK293 [1], `CC(C)C[C@H](NC(=O)[C@@H](NC(=O)c1cccc(-c2ccccc2)n1)[C@@H](C)O)B(O)O` gave an IC50 of 0.059 µM. The “cytotoxicity IC50” value in the test with HEK293 [2] was determined as 0.3 µM. For the same molecule, the maximal inhibition in the test with HEK293 [3] was found to be 95.

Consider `Oc1ccc(-c2ccc(-c3cc(Nc4cccc(CNC5CC5)c4)n[nH]3)cc2)c(O)c1`, for which the IC50 in the test with HEK293 [1] is 1.5 µM. In addition, in the test on HEK293 [2], the “cytotoxicity IC50” value is 27 µM. This molecule gave a maximal inhibition in the test with HEK293 [3] of 108.

In the test on HEK293 [1], `Nc1nc(Cl)nc2c1ncn2[C@@H]1O[C@H](CO)[C@@H](O)[C@@H]1F` gave a half-inhibitory concentration (IC50) of 41 µM. In addition, the “cytotoxicity IC50” value in the test on HEK293 [2] is more than 100 µM. This molecule also returned a maximal inhibition in the test on HEK293 [3] of 94.

`NS(=O)(=O)c1cccc2c1C(=O)c1cccc(O)c1C2=O` showed an IC50 with HEK293 [1] of 2.6 µM. The “cytotoxicity IC50” value with HEK293 [2] turned out to be 2.8 µM. This molecule also gave a maximal inhibition with HEK293 [3] of 98.

Turning to `CNC1CCC(N(Cc2cccc(-c3ccncc3)c2)C(=O)c2sc3ccccc3c2Cl)CC1` (stereo unspecified), in the test on HEK293 [1], the IC50 stood at 49 µM. In addition, the “cytotoxicity IC50” value in the test with HEK293 [2] is more than 100 µM. The molecule further yielded a maximal inhibition in the test with HEK293 [3] of 94.
